Reference: patent publication US20080261866A1, “Compositions Comprising Glycosaminoglycan and Nonsteroidal Anti-Inflammatory Drug” (PANACEA BIOTEC LTD., priority 2005, published 2008)

Experiments:
[1] = tested on: Indomethacin-induced gastric ulcers; experiment: Indomethacin-induced acute gastric ulcers in rats; assay type: in vivo, Wistar rats; conditions: Single oral administration of indomethacin 20 mg/kg, fasted animals
Method: The observed unexpected gastroprotective effect of Chondroitin sulphate is evidenced by test conducted in rats. Wistar rats of either sex were procured from Central Animal House facility, Panacea Biotec Ltd., India. The animals were fasted overnight and those weighing between 150-170 gms at the time of testing were used throughout. […] In brief, overnight fasted animals were administered orally with 20 mg/kg of Indomethacin on the day of experimentation. […] [table]

[2] = tested on: diclofenac-induced gastric ulcers; experiment: Diclofenac-induced acute gastric ulcers in rats; conditions: Single oral administration of diclofenac free acid 100 mg/kg, fasted animals
Method: Wistar rats of either sex were fasted overnight and weighing 170-200 g at the time of testing were used throughout. […] A dosing volume of 10 ml/kg was used for each sequential solution or suspension. All doses were coded and the test was performed under a code not known to the observer.
The ulcers were induced as described by Chan et al. (1995). In brief, overnight fasted animals were weighed and randomly divided into four groups. […] The number of ulcers was identified using 10× magnifying lens, counted, multiplied by respective score, and summed up for each animal. The mean score as ulcer index in each group was calculated as mentioned below.

| SMILES | Gastric damage (in words) [1] | Gastric damage (in words) [2] |
| --- | --- | --- |
| COc1ccc2c(c1)c(CC(=O)O)c(C)n2C(=O)c1ccc(Cl)cc1 [Indomethacin] | severe gastric damage | – |
| O=C(O)Cc1ccccc1Nc1c(Cl)cccc1Cl [Diclofenac, Diclofenac free acid] | – | severe gastric damage |
